In patent US4804681A, “Metal complexes having an antineoplastic action and medicaments containing these complexes” (priority 1980, dated 1989):

Tests used:
sarcoma 180 tumor cells = experiment: Sarcoma 180 tumor model (i.p.), median survival time T/C; type: in vivo, female NMRI mice; details: for T/C (median survival time) / cure rate (cured animals/treated animals): single dose
Procedure: 1. Sarcoma 180 tumor model
In each case about 10^6 sarcoma 180 tumor cells in 0.2 ml of physiological saline solution are transferred intraperitoneally (I.P.) to female NMRI mice which are about 6 weeks old and weigh 18 to 20 g. The tumor is kept in passage in the same mouse strain. The tumor cells are removed from freshly killed animals immediately before transplantation. On inoculation, the animals are randomized. 6 mice are used per dosage. Cisplatin and cyclophosphamide are used as the control substances. The number of control groups (untreated animals) is chosen such that it corresponds to about the square root of the total number of groups. The substances are injected intraperitoneally, in each case 24 hours after the transplantation, as suspensions in customary solubilizing agents, such as Tween® (polyoxyethylene derivatives of sorbitan esters).
The stated dose was administered once at the start of the experiment, as described. The factor T/C given in per cent denotes the percentage increase in median survival time of the treated animals compared with the median survival time of the untreated control animals. In some cases, the cure rate, that is to say the number of cured animals in relation to the number of treated animals, is given in the Table, in parentheses after the factor T/C.
The experiment is discontinued as soon as the median survival time T/C of the treated animals has reached 300% of the median survival time of the untreated animals. In calculating the median survival time, the animals still alive at the end of the experiment are taken as being dead at the end of the experiment.

[1] = tested on: testicular tumors, ovarian tumors, oat-cell carcinomas; details: cited from earlier work
ascitic Ehrlich tumors = details: mice; cited from earlier work
sarcoma 180 cells = experiment: subcutaneously transplanted sarcoma 180, intravenous therapy; type: in vivo, female mice; details: 4 mg/kg i.v. as Tween 60 coprecipitate (1:20), twice weekly for 4 weeks, from 2nd week
Procedure: In a further experiment, about 5×10^6 sarcoma 180 cells were subcutaneously transplanted into twelve female mice on day 0. From the 2nd week after the transplantation, six animals were given intravenous therapy with 4 mg/kg of dichlorobis(benzoylacetonato)titanium(IV) as a Tween® 60 coprecipitate (1:20) in aqueous solution, twice weekly for 4 weeks.

Yoshida sarcoma cells = experiment: subcutaneously transplanted Yoshida sarcoma, intravenous therapy; type: in vivo, female SD rats
Procedure: In a further experiment, about 5×10^6 Yoshida sarcoma cells were subcutaneously transplanted into female SD rats on day 0. In the second week, 4 mg/kg of dichlorobis(benzoylacetonato)titanium(IV) as a Tween® 60 coprecipitate (1:20) in aqueous solution were administered intravenously twice. […] The recidives were treated intravenously twice weekly with the original dose for four weeks.

[2] = 4 mg/kg i.v. as Tween 60 coprecipitate (1:20), twice in second week

With CC(=O)[CH-]C(=O)c1ccccc1.CC(=O)[CH-]C(=O)c1ccccc1.[Br-].[Br-].[Ti+4] [Dibromobis(benzoylacetonato)titanium(IV)] the “T/C (median survival time)” value (sarcoma 180 tumor cells; 5 mg/kg i.p.) was 103%, the “cure rate (cured animals/treated animals)” value (sarcoma 180 tumor cells; 5 mg/kg i.p.) was 0/6 and the “T/C (median survival time)” value (sarcoma 180 tumor cells; 20 mg/kg i.p.) was 115%. For the same compound, the “cure rate (cured animals/treated animals)” value (sarcoma 180 tumor cells; 20 mg/kg i.p.) was 0/6, the “T/C (median survival time)” value (sarcoma 180 tumor cells; 50 mg/kg i.p.) was 288% and the “cure rate (cured animals/treated animals)” value (sarcoma 180 tumor cells; 50 mg/kg i.p.) was 1/6. For the same compound, the “T/C (median survival time)” value (sarcoma 180 tumor cells; 70 mg/kg i.p.) was 300%, the “cure rate (cured animals/treated animals)” value (sarcoma 180 tumor cells; 70 mg/kg i.p.) was 3/6 and the “T/C (median survival time)” value (sarcoma 180 tumor cells; 100 mg/kg i.p.) was 300%. For the same compound, the “cure rate (cured animals/treated animals)” value (sarcoma 180 tumor cells; 100 mg/kg i.p.) was 3/6, the “T/C (median survival time)” value (sarcoma 180 tumor cells; 150 mg/kg i.p.) was 300% and the “cure rate (cured animals/treated animals)” value (sarcoma 180 tumor cells; 150 mg/kg i.p.) was 4/6. For the same compound, the “T/C (median survival time)” value (sarcoma 180 tumor cells; 215 mg/kg i.p.) was 273%, the “cure rate (cured animals/treated animals)” value (sarcoma 180 tumor cells; 215 mg/kg i.p.) was 1/6 and the “T/C (median survival time)” value (sarcoma 180 tumor cells; 315 mg/kg i.p.) was 300%. The “cure rate (cured animals/treated animals)” value (sarcoma 180 tumor cells; 315 mg/kg i.p.) was 5/6.

With N.N.[Cl][Pt][Cl] [cisplatin, cis-diamminedichloroplatinum(II), reference compound] the “T/C (median survival time)” value (sarcoma 180 tumor cells; 1 mg/kg i.p.) was 112%, the “cure rate (cured animals/treated animals)” value (sarcoma 180 tumor cells; 1 mg/kg i.p.) was 0/6 and the “T/C (median survival time)” value (sarcoma 180 tumor cells; 2 mg/kg i.p.) was 133%. For the same compound, the “cure rate (cured animals/treated animals)” value (sarcoma 180 tumor cells; 2 mg/kg i.p.) was 0/6, the “T/C (median survival time)” value (sarcoma 180 tumor cells; 3 mg/kg i.p.) was 300% and the “cure rate (cured animals/treated animals)” value (sarcoma 180 tumor cells; 3 mg/kg i.p.) was 2/6. For the same compound, the “T/C (median survival time)” value (sarcoma 180 tumor cells; 5 mg/kg i.p.) was 300%, the “cure rate (cured animals/treated animals)” value (sarcoma 180 tumor cells; 5 mg/kg i.p.) was 5/6 and the “T/C (median survival time)” value (sarcoma 180 tumor cells; 8 mg/kg i.p.) was 300%. The “cure rate (cured animals/treated animals)” value (sarcoma 180 tumor cells; 8 mg/kg i.p.) was 6/6, the “T/C (median survival time)” value (sarcoma 180 tumor cells; 13 mg/kg i.p.) was 300% and the “cure rate (cured animals/treated animals)” value (sarcoma 180 tumor cells; 13 mg/kg i.p.) was 6/6. For the same compound, the “T/C (median survival time)” value (sarcoma 180 tumor cells; 22 mg/kg i.p.) was 42%, the “cure rate (cured animals/treated animals)” value (sarcoma 180 tumor cells; 22 mg/kg i.p.) was 0/6 and the “median survival time compared with untreated controls” value (sarcoma 180 tumor cells; about 20 mg/kg) was “shorter than that of the untreated control animals”. The cure of animals (sarcoma 180 tumor cells; about 8 to 10 mg/kg) was “most of the animals are cured”, the “renal damage and damage to hearing” value ([1]; after only a single therapeutic dose) was “found with considerable frequency” and the nausea and retching [1] was “long-lasting severe nausea”. For the same compound, the antitumor activity ([1]; testicular tumors, ovarian tumors, oat-cell carcinomas) was “extremly potent antitumor agent”.

For CC(=O)C=C([O][Zr]([Br])([O]C(=CC(C)=O)c1ccccc1)[O]C(=CC(C)=O)c1ccccc1)c1ccccc1 [Bromotris(benzoylacetonato)zirconium(IV)], the “T/C (median survival time)” value (sarcoma 180 tumor cells; 92 mg/kg i.p.) was 300%, the “T/C (median survival time)” value (sarcoma 180 tumor cells; 209 mg/kg i.p.) was 297% and the “T/C (median survival time)” value (sarcoma 180 tumor cells; 471 mg/kg i.p.) was 187%.

For titanocene dichloride, the “action on ascitic Ehrlich tumors” value (ascitic Ehrlich tumors) is listed as “inhibiting action”.

For CC(=O)C=C([O][Hf]([Cl])([Cl])[O]C(=CC(C)=O)c1ccccc1)c1ccccc1 [Dichlorobis(benzoylacetonato)hafnium(IV)], the “T/C (median survival time)” value (sarcoma 180 tumor cells; 114 mg/kg i.p.) was 130%, the “T/C (median survival time)” value (sarcoma 180 tumor cells; 172 mg/kg i.p.) was 267% and the “T/C (median survival time)” value (sarcoma 180 tumor cells; 246 mg/kg i.p.) was 300%.

In the case of [Cl-].[Cl-].[Hf+4].c1cc[cH-]c1.c1cc[cH-]c1 [hafnocene dichloride], the “action on ascitic Ehrlich tumors” value (ascitic Ehrlich tumors) is listed as “inhibiting action”.

For CC(=O)C=C([O][Zr]([Br])([Br])[O]C(=CC(C)=O)c1ccccc1)c1ccccc1 [dibromobis(benzoylacetonato)zirconium(IV)], the “T/C (median survival time)” value (sarcoma 180 tumor cells; 54 mg/kg i.p.) was 300%, the “T/C (median survival time)” value (sarcoma 180 tumor cells; 80 mg/kg i.p.) was 300% and the “T/C (median survival time)” value (sarcoma 180 tumor cells; 126 mg/kg i.p.) was 191%. For the same compound, the “T/C (median survival time)” value (sarcoma 180 tumor cells; 172 mg/kg i.p.) was 172% and the “T/C (median survival time)” value (sarcoma 180 tumor cells; 247 mg/kg i.p.) was 184%.

In the case of CC(=O)[CH-]C(=O)c1ccccc1.CC(=O)[CH-]C(=O)c1ccccc1.[F-].[F-].[Ti+4] [Difluorobis(benzoylacetonato)titanium(IV)], the “T/C (median survival time)” value (sarcoma 180 tumor cells; 4 mg/kg i.p.) is reported as 97%, the “cure rate (cured animals/treated animals)” value (sarcoma 180 tumor cells; 4 mg/kg i.p.) is reported as 0/6 and the “T/C (median survival time)” value (sarcoma 180 tumor cells; 15 mg/kg i.p.) is reported as 115%. For the same compound, the “cure rate (cured animals/treated animals)” value (sarcoma 180 tumor cells; 15 mg/kg i.p.) was 0/6, the “T/C (median survival time)” value (sarcoma 180 tumor cells; 38 mg/kg i.p.) was 209% and the “cure rate (cured animals/treated animals)” value (sarcoma 180 tumor cells; 38 mg/kg i.p.) was 1/6. The “T/C (median survival time)” value (sarcoma 180 tumor cells; 52 mg/kg i.p.) was 300%, the “cure rate (cured animals/treated animals)” value (sarcoma 180 tumor cells; 52 mg/kg i.p.) was 4/6 and the “T/C (median survival time)” value (sarcoma 180 tumor cells; 75 mg/kg i.p.) was 154%. For the same compound, the “cure rate (cured animals/treated animals)” value (sarcoma 180 tumor cells; 75 mg/kg i.p.) was 0/6, the “T/C (median survival time)” value (sarcoma 180 tumor cells; 113 mg/kg i.p.) was 300% and the “cure rate (cured animals/treated animals)” value (sarcoma 180 tumor cells; 113 mg/kg i.p.) was 3/6. The “T/C (median survival time)” value (sarcoma 180 tumor cells; 162 mg/kg i.p.) was 300%, the “cure rate (cured animals/treated animals)” value (sarcoma 180 tumor cells; 162 mg/kg i.p.) was 4/6 and the “T/C (median survival time)” value (sarcoma 180 tumor cells; 238 mg/kg i.p.) was 300%. For the same compound, the “cure rate (cured animals/treated animals)” value (sarcoma 180 tumor cells; 238 mg/kg i.p.) was 2/6.

For CC(=O)C=C([O][Zr]([Cl])([Cl])[O]C(=CC(C)=O)c1ccccc1)c1ccccc1 [dichlorobis(benzoylacetonato)zirconium(IV)], the “T/C (median survival time)” value (sarcoma 180 tumor cells; 31 mg/kg i.p.) was 234%, the “T/C (median survival time)” value (sarcoma 180 tumor cells; 46 mg/kg i.p.) was 300% and the “T/C (median survival time)” value (sarcoma 180 tumor cells; 68 mg/kg i.p.) was 300%. For the same compound, the “T/C (median survival time)” value (sarcoma 180 tumor cells; 97 mg/kg i.p.) was 300%, the “T/C (median survival time)” value (sarcoma 180 tumor cells; 145 mg/kg i.p.) was 193% and the “T/C (median survival time)” value (sarcoma 180 tumor cells; 208 mg/kg i.p.) was 144%.

With CC(=O)[CH-]C(=O)c1ccccc1.CC(=O)[CH-]C(=O)c1ccccc1.[Cl-].[Cl-].[Ti+4] [Dichlorobis(benzoylacetonato)titanium(IV)] the outcome of treatment (sarcoma 180 cells) was “cured at the end of therapy”, the “recidives after three weeks (plum-sized)” value (Yoshida sarcoma cells; [2]) was “two out of three animals” and the tumor regression (Yoshida sarcoma cells; [2]) was “The tumor regressed”. For the same compound, the “cured animals after first treatment” value (Yoshida sarcoma cells; 4 mg/kg i.v. as Tween 60 coprecipitate (1:20), twice in second week, three animals) was “One animal was cured”, the “cured animals after treatment of recidives” value (Yoshida sarcoma cells; original dose i.v. twice weekly for four weeks, two animals with recidives) was “Both animals were cured” and the “T/C (median survival time)” value (sarcoma 180 tumor cells; 4 mg/kg i.p.) was 118%. The “cure rate (cured animals/treated animals)” value (sarcoma 180 tumor cells; 4 mg/kg i.p.) was 0/6, the “T/C (median survival time)” value (sarcoma 180 tumor cells; 16 mg/kg i.p.) was 115% and the “cure rate (cured animals/treated animals)” value (sarcoma 180 tumor cells; 16 mg/kg i.p.) was 0/6. For the same compound, the “T/C (median survival time)” value (sarcoma 180 tumor cells; 41 mg/kg i.p.) was 291%, the “cure rate (cured animals/treated animals)” value (sarcoma 180 tumor cells; 41 mg/kg i.p.) was 2/6 and the “T/C (median survival time)” value (sarcoma 180 tumor cells; 57 mg/kg i.p.) was 179%. For the same compound, the “cure rate (cured animals/treated animals)” value (sarcoma 180 tumor cells; 57 mg/kg i.p.) was 0/6, the “T/C (median survival time)” value (sarcoma 180 tumor cells; 82 mg/kg i.p.) was 300% and the “cure rate (cured animals/treated animals)” value (sarcoma 180 tumor cells; 82 mg/kg i.p.) was 4/6. For the same compound, the “T/C (median survival time)” value (sarcoma 180 tumor cells; 123 mg/kg i.p.) was 212%, the “cure rate (cured animals/treated animals)” value (sarcoma 180 tumor cells; 123 mg/kg i.p.) was 1/6 and the “T/C (median survival time)” value (sarcoma 180 tumor cells; 177 mg/kg i.p.) was 251%. For the same compound, the “cure rate (cured animals/treated animals)” value (sarcoma 180 tumor cells; 177 mg/kg i.p.) was 1/6, the “T/C (median survival time)” value (sarcoma 180 tumor cells; 259 mg/kg i.p.) was 300% and the “cure rate (cured animals/treated animals)” value (sarcoma 180 tumor cells; 259 mg/kg i.p.) was 5/6.

For [Cl][Zr+2][Cl].c1cc[cH-]c1.c1cc[cH-]c1 [zirconocene dichloride], the “action on ascitic Ehrlich tumors” value (ascitic Ehrlich tumors) is listed as “inhibiting action”.
